Test results reported in patent US11602530B2, “CRM1 inhibitors for treating epilepsy” (Biogen MA Inc., priority 2016, dated 2023).

Tests used:
male NMRI mice = assay: Pilocarpine model of temporal lobe epilepsy (TLE), spontaneous recurrent seizures; type: in vivo; details: for reduction in seizure activity: 7.5 mg/kg per os every other day for two weeks
Experimental: FIG. 1 is a description of a pilocarpine model of temporal lobe epilepsy (TLE) in male NMRI mice. The treatment phase was compound E-1 in Table I administered at 7.5 mg/kg per os or vehicle, every other day for the two week treatment period. Vehicle was 0.6% plasdone PVP K29/32 and 0.6% poloxamer Pluronic F68 in water.
A well-established pilocarpine model of temporal lobe epilepsy (TLE) that has been recently optimized for mice can be used (Mazzuferi et al., Exp. Neurol. 238:156-67). Status epilepticus (SE) can be initiated with a single 300 mg/kg intraperitoneal (i.p.) injection of pilocarpine in male NMRI mice, 30 min after N-methylscopolamine bromide administration (1 mg/kg; i.p.). Within 10 to 45 min after pilocarpine treatment, animals display generalized tonic-clonic seizures that progress to continuous convulsive activity, i.e. SE. To limit the duration of SE, mice can be injected with a bolus dose of diazepam (10 mg/kg; i.p.) after 3 h. The mice typically show spontaneous recurrent seizures within few days after SE and continue to display them throughout their lifetime.
A separate cohort of animals (for example, n=40) can then undergo continuous monitoring for spontaneous recurrent seizures during 28 consecutive days beginning 8-10 weeks following pilocarpine induced SE. The seizure monitoring can be performed by simultaneous recording of locomotor activity with a 3D accelerometer and video. This system allows for automated detection of behavioral seizures by analysis of the accelerometry signal. All behavioral seizures can be scored according to the Racine's protocol after detailed review of corresponding video clips by experienced technical personnel. Secondary generalized seizures, a Racine's score of 3-5, will be quantified and used for calculation of total seizure counts. […]

[1] = Body weight of treated mice in the pilocarpine TLE model; type: in vivo; details: 7.5 mg/kg per os every other day for two weeks
Experimental: Following the general procedure described in Example 1 and outlined in FIG. 1, Compound E1 of Table I was administered to mice during the treatment phase at 7.5 mg/kg per os every other day for the two weeks of treatment.

For `CC(C)(C)C(=O)NNC(=O)/C=C\n1cnc(-c2cc(C(F)(F)F)cc(C(F)(F)F)c2)n1` [Compound E-1, (Z)-3-(3-(3,5-bis(trifluoromethyl)phenyl)-1H-1,2,4-triazol-1-yl)-N′-pivaloylacrylohydrazide], the “reduction in seizure occurrence in comparison to vehicle treated mice” value (male NMRI mice; a significant number of mice, chronic administration (FIG. 4)) was 50%, the “reduction in seizure activity” value (male NMRI mice; all treated mice (24 dosed)) was no less than 50% and the “reduction in seizure activity” value (male NMRI mice; six of the treated mice) was 100%. The “change in body weight of the treated mice” value [1] was “no change”.
